Values after ≈ are worked out from the molar mass of the structure shown. Where two headings read alike, the source gives them in different places.
Assays:
Type in all cases: cell-based
test strains = assay: antimicrobial activity in vitro, comparison in words; settings: data are not shown
Experimental: (§1) Antimicrobial activities of the compounds of the present invention were determined by measuring minimum inhibitory concentration (MIC). Minimum inhibitory concentration was determined by the agar plate dilution method in the following manner.
(§2) Test strains were subjected to seed culture using Sensitivity test broth (STB, Nissui Pharmaceutical) except that the strains belonging to the genus Streptococcus, Branhamella and Haemophilus were cultured on blood agar plate. A 5 μl portion of cell suspension of the test strains having about 10^6 CFU/ml was inoculated into Sensitivity disk agar (SDA, Nissui Pharmaceutical) supplemented with 5% horse blood and incubated at 37° C. for 20 hours. Then, MIC was measured. For comparison, MDM and leucomycin A7 (LM-A7) was also tested.

Gram-positive bacteria = assay: antimicrobial activity in vitro (summary in words); settings: from Tables 2 and 3
Experimental: as §1, §2

S. aureus MS15009/pMS99 = assay: MIC, agar plate dilution method; settings: Staphylococcus aureus, MS15009/PMS99, 20 h, read-out: Antimicrobial activity (MIC)
Experimental: as §1, §2

S. aureus 209P JC-1 = assay: MIC, agar plate dilution method; settings: Staphylococcus aureus, read-out: Antimicrobial activity (MIC)
Experimental: as §1, §2

S. Pneumoniae Type 1 = assay: MIC, agar plate dilution method; settings: Streptococcus pneumoniae; S. Pneumoniae Type 1; 37° C., 20 hours; read-out: Antimicrobial activity (MIC)
Experimental: as §1, §2

K. pneumoniae PC1602 = assay: MIC, agar plate dilution method; settings: Klebsiella pneumoniae, 37° C., 20 hours, read-out: Antimicrobial activity (MIC)
Experimental: as §1, §2

S. aureus MS15009/pMS98 = assay: MIC, agar plate dilution method; settings: Staphylococcus aureus, MS15009/PMS98, 20 h, read-out: Antimicrobial activity (MIC)
Experimental: as §1, §2

S. pneumoniae IP692 = assay: MIC, agar plate dilution method; settings: Streptococcus pneumoniae; S. pneumoniae IP692; 37° C., 20 hours; read-out: Antimicrobial activity (MIC)
Experimental: as §1, §2

S. aureus M126 = assay: MIC, agar plate dilution method; settings: Staphylococcus aureus, read-out: Antimicrobial activity (MIC)
Experimental: as §1, §2

S. aureus MS15026 = assay: MIC, agar plate dilution method; settings: Staphylococcus aureus, 37° C., 20 hours, read-out: Antimicrobial activity (MIC)
Experimental: as §1, §2

S. aureus M133 = assay: MIC, agar plate dilution method; settings: Staphylococcus aureus, 37° C., 20 hours, read-out: Antimicrobial activity (MIC)
Experimental: as §1, §2

E. faecalis W-73 = assay: MIC, agar plate dilution method; settings: Enterococcus faecalis, W73; E. faecalis W-73; 37° C., 20 hours; read-out: Antimicrobial activity (MIC)
Experimental: as §1, §2

S. epidermidis ATCC14990 = assay: MIC, agar plate dilution method; settings: Staphylococcus epidermidis, 37° C., 20 hours, read-out: Antimicrobial activity (MIC)
Experimental: as §1, §2

H. influenzae 9334 = assay: MIC, agar plate dilution method; settings: Haemophilus influenzae; H. influenzae 9334; 37° C., 20 hours; read-out: Antimicrobial activity (MIC)
Experimental: as §1, §2

B. catarrhalis W-0506 = assay: MIC, agar plate dilution method; settings: Moraxella catarrhalis, W0506, 37° C., 20 hours, read-out: Antimicrobial activity (MIC)
Experimental: as §1, §2

M. luteus ATCC9341 = assay: MIC, agar plate dilution method; settings: Micrococcus luteus; M. luteus ATCC9341; 37° C., 20 hours; read-out: Antimicrobial activity (MIC)
Experimental: as §1, §2

E. coli NIHJ JC-2 = assay: MIC, agar plate dilution method; settings: Escherichia coli, NIHJJC2; E. coli NIHJ JC-2; 37° C., 20 hours; read-out: Antimicrobial activity (MIC)
Experimental: as §1, §2

S. aureus MS15027 = assay: MIC, agar plate dilution method; settings: Staphylococcus aureus, 37° C., 20 hours, read-out: Antimicrobial activity (MIC)
Experimental: as §1, §2

B. catarrhalis W-0500 = assay: MIC, agar plate dilution method; settings: Moraxella catarrhalis, W0500, 37° C., 20 hours, read-out: Antimicrobial activity (MIC)
Experimental: as §1, §2

S. Pyogenes Cook = assay: MIC, agar plate dilution method; settings: Streptococcus pyogenes, 37° C., 20 hours, read-out: Antimicrobial activity (MIC)
Experimental: as §1, §2

H. influenzae Type b = assay: MIC, agar plate dilution method; settings: Haemophilus influenzae, read-out: Antimicrobial activity (MIC)
Experimental: as §1, §2

[1] = S. aureus 209P JC-1, 37° C., 20 hours
[2] = S. aureus M126, 37° C., 20 hours
[3] = H. influenzae Type b, 37° C., 20 hours

Structure (SMILES) | antimicrobial activity on Gram-positive bacteria (Gram-positive bacteria) | MIC (S. aureus MS15009/pMS99) | MIC (S. aureus 209P JC-1; [1]) | MIC (S. Pneumoniae Type 1) | MIC (K. pneumoniae PC1602) | MIC (S. aureus MS15009/pMS98) | MIC (S. pneumoniae IP692) | MIC (S. aureus M126; [2]) | MIC (S. aureus MS15026) | MIC (S. aureus M133) | MIC (E. faecalis W-73) | MIC (S. epidermidis ATCC14990) | MIC (H. influenzae 9334) | MIC (B. catarrhalis W-0506) | MIC (M. luteus ATCC9341) | MIC (E. coli NIHJ JC-2) | MIC (S. aureus MS15027) | MIC (B. catarrhalis W-0500) | MIC (S. Pyogenes Cook) | MIC (H. influenzae Type b; [3]) | other results
CO[C@@H]1[C@@H](O[C@@H]2O[C@H](C)[C@@H](O[C@H]3C[C@@](C)(OC)[C@@H](OCCC(C)C)[C@H](C)O3)[C@H](N(C)C)[C@H]2O)[C@@H](CC=O)C[C@@H](C)[C@@H](OC(C)=O)/C=C/C=C/C[C@@H](C)OC(=O)C[C@H]1O [(13)] |  |  |  |  |  |  |  |  |  |  |  |  |  |  |  |  |  |  |  |  | antimicrobial activity compared with compound (12) (test strains): comparable in the antimicrobial activity to the compound (12)
CCO[C@]1(C)C[C@H](O[C@H]2[C@H](N(C)C)[C@@H](O)[C@H](O[C@H]3[C@@H](CC=O)C[C@@H](C)[C@@H](O)/C=C/C=C/C[C@@H](C)OC(=O)C[C@@H](O)[C@@H]3OC)O[C@@H]2C)O[C@@H](C)[C@@H]1OCCC(C)C [(14)] | strong antimicrobial activity | > 100 µg/mL | 0.2 µg/mL (≈ 0.25 µM) | 0.2 µg/mL (≈ 0.25 µM) | > 100 µg/mL | 0.39 µg/mL (≈ 0.487 µM) | 0.2 µg/mL (≈ 0.25 µM) | > 100 µg/mL | > 100 µg/mL | 0.78 µg/mL (≈ 0.975 µM) | 0.78 µg/mL (≈ 0.975 µM) | 0.78 µg/mL (≈ 0.975 µM) | 6.25 µg/mL (≈ 7.81 µM) | 0.78 µg/mL (≈ 0.975 µM) | 0.05 µg/mL (≈ 0.0625 µM) | > 100 µg/mL | 0.39 µg/mL (≈ 0.487 µM) | 0.39 µg/mL (≈ 0.487 µM) | 0.1 µg/mL (≈ 0.125 µM) | 12.5 µg/mL (≈ 15.6 µM) | 
CCCO[C@]1(C)C[C@H](O[C@H]2[C@H](N(C)C)[C@@H](O)[C@H](O[C@H]3[C@@H](CC=O)C[C@@H](C)[C@@H](O)/C=C/C=C/C[C@@H](C)OC(=O)C[C@@H](O)[C@@H]3OC)O[C@@H]2C)O[C@@H](C)[C@@H]1OCCC(C)C [(15)] | strong antimicrobial activity | > 100 µg/mL | 0.2 µg/mL (≈ 0.246 µM) | 0.2 µg/mL (≈ 0.246 µM) | > 100 µg/mL | 0.39 µg/mL (≈ 0.479 µM) | 0.2 µg/mL (≈ 0.246 µM) | > 100 µg/mL | > 100 µg/mL | 0.78 µg/mL (≈ 0.958 µM) | 0.78 µg/mL (≈ 0.958 µM) | 0.78 µg/mL (≈ 0.958 µM) | 6.25 µg/mL (≈ 7.68 µM) | 0.78 µg/mL (≈ 0.958 µM) | 0.1 µg/mL (≈ 0.123 µM) | > 100 µg/mL | 0.39 µg/mL (≈ 0.479 µM) | 0.78 µg/mL (≈ 0.958 µM) | 0.1 µg/mL (≈ 0.123 µM) |  | MIC (H. influenzae Type b; 20 h): 50 µg/mL (≈ 61.4 µM)
CCC(=O)O[C@H]1[C@H](C)O[C@@H](O[C@H]2[C@H](N(C)C)[C@@H](O)[C@H](O[C@H]3[C@@H](CC=O)C[C@@H](C)[C@@H](O)/C=C/C=C/C[C@@H](C)OC(=O)C[C@@H](O)[C@@H]3OC)O[C@@H]2C)C[C@@]1(C)O [LM-A7, leucomycin A7, reference compound] |  | > 100 µg/mL |  | 0.2 µg/mL (≈ 0.264 µM) | > 100 µg/mL | 0.39 µg/mL (≈ 0.515 µM) | 0.2 µg/mL (≈ 0.264 µM) |  | > 100 µg/mL | 0.39 µg/mL (≈ 0.515 µM) | 0.78 µg/mL (≈ 1.03 µM) | 0.39 µg/mL (≈ 0.515 µM) | 0.78 µg/mL (≈ 1.03 µM) | 1.56 µg/mL (≈ 2.06 µM) | 0.05 µg/mL (≈ 0.066 µM) | > 100 µg/mL | 0.39 µg/mL (≈ 0.515 µM) | 0.78 µg/mL (≈ 1.03 µM) | 0.1 µg/mL (≈ 0.132 µM) | 6.25 µg/mL (≈ 8.25 µM) | MIC (S. aureus 209P JC-1; 209P, 20 h): 0.2 µg/mL (≈ 0.264 µM); MIC (S. aureus M126; M126, 20 h): > 100 µg/mL

Source: patent US5407918A, “16-membered macrolide derivatives and process for producing the same” (Meiji Seika Kaisha, Ltd., priority 1992, dated 1995)
